Data set [1] relates to Jump-In T-REx CHO-K1 BLA cells. Put plainly: cells. The data set is classed as cell-based.
The test system of data set [2] is cells transiently transfected with the NanoLuc-HaloTag vector. Put plainly: Nanoclick permeability assay. Particulars: 4Hr. In a few lines: (§1)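 Azido-peptide permeability was read as loss of NanoBRET signal (donor 450 nm, acceptor 610 nm) after adding NanoBret618-azide at 10 μM final.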
The next data set can be described thus: in vitro. The note with it: Nanoclick permeability assay EC50. In a few lines: as §1
Data set [3] relates to p53 responsive β-lactamase reporter in HCT116 cells. As to the kind of experiment: cells. The data set is classed as cell-based. A digest of the protocol:
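Read-out used the ToxBLAzer Dual Screen for β-lactamase driven by a stably integrated p53-responsive reporter. Assay: 8000 HCT116 cells per well at 0.5% final DMSO. Reported numbers are geometric means over a minimum of three biological replicates.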

In the next data set the target is T1, human Mdm2 1–125 (Homo sapiens, UniProt Q00987).
T1 construct: GST (N); His6 (internal); TEV cleavage site (ENLYFQG) (internal); made in house; host or cells: BL21 (DE3) Rosetta T1R Escherichia coli
As to the kind of experiment: Mdm2 binding by competitive fluorescence anisotropy assay (FP binding). The note with it: read-out: FP binding assay KD. For orientation: In fluorescence polarisation assays a small probe gives low polarisation when free and higher when bound to something large.

A short description of data set [4]: Experimental LogD (partition coefficient).
Data set [5] in a line: Solubility assay (kinetic solubility, PBS pH 7). The note with it: pH 7, PBS. The data set is classed as physicochemical. A digest of the protocol: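 Reference standards were made by diluting the 10 mM stock to 100 µM in acetonitrile:methanol:DMSO 10:80:10. Solubility in µM was calculated as the sample peak area divided by the standard peak area, multiplied by the standard concentration.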

Data set [6] is described as follows: Lactate dehydrogenase (LDH) release assay. It is filed as cell-based. A digest of the protocol:
(§2)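 A p53 β-lactamase reporter HCT116 line, 8000 cells per well, is exposed to test compounds at 0.5% final DMSO and scored for LDH leakage.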

Data set [7] can be described thus: Circular dichroism (CD) helicity. The data set is classed as physicochemical. As to the method:
A total of 5 µL of the 10 mM stock peptide was mixed with 45 µL of 100% methanol, and dried for 2 h in the SpeedVac concentrator (Thermo Scientific). The dried peptide was reconstituted in a buffer (1 mM Hepes pH 7.4 and 5% methanol) to a concentration of 1 mM. The peptide sample was placed in a quartz cuvette with a path length of 0.2 cm. The peptide concentration was determined by the absorbance of the peptide at […]. The CD spectrum was recorded from 300 to 190 nm using the Chirascan-plus qCD machine (Applied Photophysics, Surrey, UK), at 25 °C. All experiments were done in duplicates. The CD spectrum was converted to mean residue ellipticity before deconvolution and estimation of the secondary structure components of the peptide using the CDNN software (distributed by Applied Photophysics). Measurements were taken at least twice and were reported as arithmetic means.

The test system of the next data set is HCT116 cells. As to the kind of experiment: Lactate dehydrogenase (LDH) release assay. It is filed as cell-based. A digest of the protocol: as §2
Setting [8] is: 0% FBS 4Hr, read-out: TETCHO: Counterscreen EC50.
Where [9] appears, read: 0% FBS 4Hr, read-out: p53 reporter assay EC50.
Where [10] appears, read: 10% FBS 16Hr, read-out: TETCHO: Counterscreen EC50.
The mark [11] stands for this setting: 0% FBS 4Hr, read-out: p53 reporter assay: EC50.
[12] abbreviates: 10% FBS 16Hr, read-out: p53 reporter assay: EC50.
[13] abbreviates: read-out: Cell EC50 (4 hr, 0% FBS), p53 reporter assay, 4 hr, 0% FBS.
The mark [14] stands for this setting: read-out: Cell EC50 (16 hr, 10% FBS), p53 reporter assay, 16 hr, 10% FBS.
Where [15] appears, read: 0% FBS 4Hr, read-out: LDH: Cytotoxicity assay: EC50.

Data on five compounds can be found in article PMC10786919, “Design-rules for stapled peptides with in vivo activity and their application to Mdm2/X antagonists” (Nature Communications, 2024).

Values after ≈ are worked out from the molar mass of the structure shown. Read-outs that look alike come from different tables or passages of the source. Positions of bridges follow the written chain, without caps; N, C: chain ends. Non-standard residues stand in square brackets, D forms with d. Residues, ends and D or L forms follow the SMILES beside them. Lys(N3) = [N-]=[N+]=NCCCC[C@H](N)C(=O)O; R8 = C=CCCCCCC[C@@](C)(N)C(=O)O; Cba = N[C@@H](CC1CCC1)C(=O)O; S5 = C=CCCC[C@](C)(N)C(=O)O; βAla = NCCC(=O)O

A word on the EC50: it is the concentration that produces a half-maximal response. The term Kd denotes a measure of binding affinity in units of concentration. As a reminder, the logD is the decadic logarithm of the distribution of all forms, ionised or not, between an organic phase and buffer at a given pH. Higher therefore signals a more lipophilic compound.

T1 sequence (Q00987 with tags, fused parts or gaps): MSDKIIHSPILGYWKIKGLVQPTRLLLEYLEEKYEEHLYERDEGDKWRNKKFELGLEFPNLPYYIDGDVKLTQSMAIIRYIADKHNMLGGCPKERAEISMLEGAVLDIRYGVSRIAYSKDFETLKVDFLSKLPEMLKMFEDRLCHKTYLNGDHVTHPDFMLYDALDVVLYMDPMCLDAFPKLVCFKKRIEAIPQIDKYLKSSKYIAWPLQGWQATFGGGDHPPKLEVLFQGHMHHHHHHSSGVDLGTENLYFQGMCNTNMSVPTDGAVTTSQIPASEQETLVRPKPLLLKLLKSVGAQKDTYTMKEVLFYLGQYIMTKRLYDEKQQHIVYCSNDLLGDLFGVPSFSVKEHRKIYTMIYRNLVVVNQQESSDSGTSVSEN

Take `CC(C)C[C@H](NC(=O)CCNC(=O)[C@H](CCCCN=[N+]=[N-])NC(=O)CNC(=O)[C@H](CC(=O)O)NC(=O)[C@H](CC(C)C)NC(=O)[C@H](CCCCN)NC(=O)[C@@H](NC(=O)[C@H](CCCNC(=N)N)NC(=O)[C@H](CCCCN)NC(=O)[C@H](C)NC(=O)[C@H](C)NC(=O)[C@@H]1CCCN1)C(C)C)C(=O)N[C@H](C(=O)N[C@@H](Cc1ccccc1)C(=O)N[C@]1(C)CCCCCCC=CCCC[C@@](C)(C(=O)N[C@@H](CO)C(=O)N[C@@H](C)C(=O)N[C@@H](C)C(N)=O)NC(=O)[C@H](CC2CCC2)NC(=O)[C@H](CCC(N)=O)NC(=O)[C@H](C)NC(=O)[C@H](Cc2c[nH]c3ccccc23)NC(=O)[C@H](Cc2ccc(O)cc2)NC(=O)[C@H](CCC(=O)O)NC1=O)[C@@H](C)O` [MP-879] (H-PAAKRVKLDG[Lys(N3)][βAla]LTF[R8]EYWAQ[Cba][S5]SAA-NH2; staple 16-23): the “TETCHO: Counterscreen % Effect” value in data set [1] (0% FBS 4Hr) was determined as 42.86%; in [1] (0% FBS 16Hr) it was 28.78%. The EC50 is 35.8 µM in [1] (setting [8]); more than 50 µM in data set [1] (0% FBS 16Hr, read-out: TETCHO: Counterscreen EC50); 2.4 µM in [3] (setting [9]); 1.14 µM in data set [3] (0% FBS 16Hr, read-out: p53 reporter assay EC50); more than 50 µM in data set [6] (LDH: Cytotoxicity assay EC50). Further, the “Nanoclick permeability assay % Effect” value in [2] is recorded as 134.8%. For the same compound, the cell entry EC50 in the data set “in vitro” was found to be 0.555 µM. In addition, the Kd on human Mdm2 1–125 amounted to 0.0386 µM. In data set [4] (not stated, Partition Coeff LogD), the logD was 2.38. In addition, in data set [5] (pH 7, aqueous buffer, kinetic from dmso stock, read-out: Solubility), the solubility kinetic was 162 µM (≈ 480 µg/mL).
Turning to `CC(=O)N[C@@H](CCCCN=[N+]=[N-])C(=O)NCCC(=O)N[C@@H](CC(C)C)C(=O)N[C@H](C(=O)N[C@@H](Cc1ccccc1)C(=O)N[C@]1(C)CCCCCCn2cc(nn2)CCC[C@@](C)(C(=O)N[C@@H](CO)C(=O)N[C@@H](C)C(=O)N[C@@H](C)C(N)=O)NC(=O)[C@H](CC2CCC2)NC(=O)[C@H](CCC(N)=O)NC(=O)[C@H](C)NC(=O)[C@H](Cc2c[nH]c3ccccc23)NC(=O)[C@H](Cc2ccc(O)cc2)NC(=O)[C@H](CCC(=O)O)NC1=O)[C@@H](C)O` [MP-707], the “TETCHO: Counterscreen % Effect” value in data set [1] (0% FBS 4Hr) is -1.105%; in data set [1] (10% FBS 16Hr), -2.89%. Also, the EC50 in data set [1] (setting [8]) was more than 50.4 µM; in data set [1] (setting [10]) it was more than 50.4 µM; in [3] (setting [11]), 1.6 µM; in data set [3] (setting [12]) it was 13.6 µM; in data set [3] (setting [13]) it was 1.6 µM; in data set [3] (setting [14]), 13.6 µM. Besides, the EC50 in data set [6] (setting [15]) is more than 50.7 µM; in data set [6] (10% FBS 16Hr, read-out: LDH: Cytotoxicity assay: EC50) it was more than 50.7 µM. Besides, the “p53 reporter assay: % Effect” value in data set [3] (0% FBS 4Hr) is given as 101.9%; in data set [3] (10% FBS 16Hr), 63.44%. In data set [7], the “CD % Helicity” value came out at 33.95%. In addition, the results for the “LDH: Cytotoxicity assay: % Effect” value with HCT116 cells (0% FBS 4Hr) and in the data set on HCT116 cells (10% FBS 16Hr) were -2.492% and 13.49%, respectively.
For the compound `CC(=O)N[C@@H](CC(C)C)C(=O)N[C@H](C(=O)N[C@@H](Cc1ccccc1)C(=O)N[C@]1(C)CCCCCCC=CCCC[C@@](C)(C(=O)N[C@@H](CO)C(=O)N[C@@H](C)C(=O)N[C@@H](C)C(N)=O)NC(=O)[C@H](CC2CCC2)NC(=O)[C@H](Cc2c[nH]cn2)NC(=O)[C@H](C)NC(=O)[C@H](Cc2c[nH]c3ccccc23)NC(=O)[C@H](Cc2ccc(O)cc2)NC(=O)[C@H](CCC(=O)O)NC1=O)[C@@H](C)O` [MP-501, ATSP-7041 (Q8H)], in [1] (0% FBS 4Hr), the “TETCHO: Counterscreen % Effect” value is reported as 216%. Besides, the EC50 in [1] (setting [8]) is 18.9 µM; in data set [1] (4 hours, 0% serum, read-out: TETCHO Counterscreen EC50), 18.9 µM; in data set [3] (setting [11]), 2.5 µM; in data set [3] (0% FBS 16Hr, read-out: p53 reporter assay: EC50), 28.6 µM; in data set [6] (setting [15]), more than 50 µM. In addition, in [1] (4 hours, 0% serum, efficacy at 50 μM relative to tetracycline control), the “TETCHO Counterscreen % Effect” value stood at 216%. In addition, the “CD % Helicity” value in data set [7] was found to be 29.1%. The “LDH: Cytotoxicity assay: % Effect” value in the data set on HCT116 cells (0% FBS 4Hr) is 4.045%.
Turning to `CC(=O)N[C@@H](CC(C)C)C(=O)N[C@H](C(=O)N[C@@H](Cc1ccccc1)C(=O)N[C@]1(C)CCCCCCC=CCCC[C@@](C)(C(=O)N[C@@H](C)C(=O)N[C@@H](C)C(=O)N[C@@H](C)C(=O)N[C@@H](C)C(=O)N[C@@H](C)C(=O)N[C@@H](C)C(N)=O)NC(=O)[C@H](CC(C)C)NC(=O)[C@H](CCC(N)=O)NC(=O)[C@H](C)NC(=O)[C@H](Cc2c[nH]c3ccccc23)NC(=O)[C@H](Cc2ccc(O)cc2)NC(=O)[C@H](CCC(=O)O)NC1=O)[C@@H](C)O` [MP-688] (Ac-LTF[R8]EYWAQL[S5]AAAAAA-NH2; staple 4-11), the EC50 in [1] (setting [8]) was more than 50.4 µM; in data set [1] (setting [10]) it was more than 50.4 µM; in data set [3] (setting [9]) it was 0.157 µM; in [3] (10% FBS 16Hr, read-out: p53 reporter assay EC50) it was 1.35 µM; in data set [3] (setting [13]), 0.16 µM; in data set [3] (setting [14]), 1.3 µM. The half-maximal effective concentration (EC50) in data set [6] (0% FBS 4Hr, read-out: LDH: Cytotoxicity assay EC50) is more than 50.7 µM; in [6] (10% FBS 16Hr, read-out: LDH: Cytotoxicity assay EC50) it was more than 50.7 µM. Besides, the “CD % Helicity” value in [7] is listed as 49.8%. Moreover, in data set [7] (circular dichroism), the Aqueous solution helicity was 49.8%.
As for `CC(=O)N[C@@H](CCCCN)C(=O)NCCCCCC(=O)N[C@H](C(=O)N[C@@H](CO)C(=O)N[C@@H](Cc1ccccc1)C(=O)N[C@]1(C)CCCCCCC=CCCC[C@@](C)(C(N)=O)NC(=O)[C@H](CC(C)C)NC(=O)[C@H](CC(C)C)NC(=O)[C@H](C)NC(=O)[C@H](Cc2c[nH]c3ccccc23)NC(=O)[C@H](Cc2ccc(O)cc2)NC(=O)[C@H](CCC(=O)O)NC1=O)[C@@H](C)O` [MP-716], the “TETCHO: Counterscreen % Effect” value in data set [1] (0% FBS 4Hr) is recorded as 43.21%; in [1] (10% FBS 4Hr), 45.82%; in data set [1] (10% FBS 16Hr) it was 13.83%. Further, the EC50 was more than 50.4 µM in data set [1] (setting [8]); more than 50.4 µM in data set [1] (10% FBS 4Hr, read-out: TETCHO: Counterscreen EC50); more than 50.4 µM in [1] (setting [10]); 14.1 µM in data set [3] (setting [11]); 15.9 µM in data set [3] (10% FBS 4Hr, read-out: p53 reporter assay: EC50); more than 50.4 µM in data set [3] (setting [12]). Moreover, the half-maximal effective concentration (EC50) in data set [6] (LDH: Cytotoxicity assay: EC50) is more than 50.7 µM. In addition, the “Nanoclick permeability assay % Effect” value in data set [2] was 9.756%. For the same compound, in “in vitro”, the cell entry EC50 is more than 10 µM. Besides, the “p53 reporter assay: % Effect” value stood at 93.75% in data set [3] (0% FBS 4Hr), 161.5% in data set [3] (10% FBS 4Hr) and 18.31% in [3] (10% FBS 16Hr). The Kd on human Mdm2 1–125 came to 0.011 µM. The “Partition Coeff LogD” value in [4] is “Poorly Behaved”. For the same compound, in data set [5], the Solubility result is listed as “Poorly Behaved”.
